Laboratory results taken from US20240150377A1, “MODULATORS OF CYSTIC FIBROSIS TRANSMEMBRANE CONDUCTANCE REGULATOR” (VERTEX PHARMACEUTICALS INCORPORATED, priority 2020, published 2024).
Like-named read-outs stand apart in the source and are kept apart here.

Target: T1, CFTR (Homo sapiens, UniProt P13569, DEL508-508)
T1 construct: endogenous in cells; host or cells: primary human bronchial epithelial cells from CF subjects (F508del/MF-HBE), differentiated at air-liquid interface
Test: HBE assay: Ussing chamber assay of CFTR-mediated short-circuit currents
Format: cell-based
Details: for Emax: read-out: HBE Max Activity (%); for activation at 10 µM: read-out: HBE Activity at 10 μM (%)
How it was run: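 CFTR-mediated Isc (μA/cm²) equals the peak response to apical 20 μM forskolin minus the residual after a 20 μM each BPO/GlyH-101/CFTR inhibitor 172 cocktail, recorded in Ussing chambers at Vhold 0 mV, 37 °C, pH 7.4, with 30 μM apical amiloride. Cells were F508del/MF HBE cultures preincubated 18-24 h with corrector (concentration range or 10 μM) plus 1 μM ivacaftor in 20% human serum.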

T1 sequence (P13569 with tags, fused parts or gaps DEL508-508): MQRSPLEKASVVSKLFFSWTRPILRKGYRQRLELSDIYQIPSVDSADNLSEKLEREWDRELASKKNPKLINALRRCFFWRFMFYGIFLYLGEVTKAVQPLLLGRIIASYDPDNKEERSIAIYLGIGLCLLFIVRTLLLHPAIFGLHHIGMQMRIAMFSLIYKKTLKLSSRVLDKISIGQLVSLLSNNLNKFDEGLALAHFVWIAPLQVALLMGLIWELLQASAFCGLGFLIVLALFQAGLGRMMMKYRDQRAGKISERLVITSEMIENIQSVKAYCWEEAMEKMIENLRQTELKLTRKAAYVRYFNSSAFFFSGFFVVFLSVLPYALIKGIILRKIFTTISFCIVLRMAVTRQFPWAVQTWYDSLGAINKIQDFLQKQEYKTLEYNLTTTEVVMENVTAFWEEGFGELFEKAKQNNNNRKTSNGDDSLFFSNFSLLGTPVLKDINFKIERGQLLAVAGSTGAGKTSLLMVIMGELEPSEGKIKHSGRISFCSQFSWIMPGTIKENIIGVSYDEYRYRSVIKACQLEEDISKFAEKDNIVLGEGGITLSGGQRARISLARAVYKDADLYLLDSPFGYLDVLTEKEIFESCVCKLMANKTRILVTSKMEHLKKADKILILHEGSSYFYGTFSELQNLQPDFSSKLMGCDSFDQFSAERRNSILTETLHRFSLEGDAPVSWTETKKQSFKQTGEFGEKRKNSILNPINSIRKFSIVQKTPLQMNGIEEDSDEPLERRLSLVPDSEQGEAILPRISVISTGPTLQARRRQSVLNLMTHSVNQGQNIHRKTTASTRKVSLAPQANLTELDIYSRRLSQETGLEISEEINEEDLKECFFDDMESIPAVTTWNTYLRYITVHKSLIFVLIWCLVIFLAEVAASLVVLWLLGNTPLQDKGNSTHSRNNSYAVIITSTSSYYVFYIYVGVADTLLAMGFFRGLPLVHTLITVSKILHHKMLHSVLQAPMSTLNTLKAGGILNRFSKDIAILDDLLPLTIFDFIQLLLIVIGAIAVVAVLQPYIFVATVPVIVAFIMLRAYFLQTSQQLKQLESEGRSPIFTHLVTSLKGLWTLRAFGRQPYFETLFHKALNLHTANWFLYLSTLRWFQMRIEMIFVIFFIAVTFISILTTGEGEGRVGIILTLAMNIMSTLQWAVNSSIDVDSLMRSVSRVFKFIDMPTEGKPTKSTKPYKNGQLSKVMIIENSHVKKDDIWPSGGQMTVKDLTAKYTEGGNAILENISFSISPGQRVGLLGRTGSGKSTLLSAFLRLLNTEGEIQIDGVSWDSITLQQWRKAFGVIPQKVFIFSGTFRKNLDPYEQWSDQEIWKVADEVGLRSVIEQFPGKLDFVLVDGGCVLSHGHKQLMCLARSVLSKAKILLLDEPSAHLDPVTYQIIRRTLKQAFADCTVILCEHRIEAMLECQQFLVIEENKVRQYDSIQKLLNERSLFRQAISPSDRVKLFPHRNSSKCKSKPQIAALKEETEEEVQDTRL

Compound	EC50 (Table 12, read-out: HBE EC50)	Emax (Table 12)	other results
Cc1cccc(C)c1-c1cc2nc(n1)NS(=O)(=O)c1cccc(c1)C(=O)N(Cc1ncc(OC3CC4(CC4)C3)cn1)[C@H](CC(C)(C)C)CO2 [Compound 560]	< 1 µM	> 60%	–
Cc1cccc(C)c1-c1cc2nc(n1)NS(=O)(=O)c1cccc(c1)C(=O)N(Cc1ncc(OC3CCCCC3)cn1)[C@H](CC(C)(C)C)CO2 [Compound 561]	< 1 µM	> 60%	activation at 10 µM (Table 12): > 600%
Cc1cccc(C)c1-c1cc2nc(n1)NS(=O)(=O)c1cccc(c1)C(=O)N(Cc1ncc(N3C4CCC3COC4)cn1)[C@H](CC(C)(C)C)CO2 [Compound 563]	–	> 60%	EC50 (HBE EC50 (μM), Table 12): < 1 µM
COCCN(c1cccc(CN2C(=O)c3cccc(c3)S(=O)(=O)Nc3nc(cc(-c4c(C)cccc4C)n3)OC[C@H]2CC(C)(C)C)n1)C(C)C [Compound 564]	< 1 µM	> 60%	–
Cc1cccc(C)c1-c1cc2nc(n1)NS(=O)(=O)c1cccc(c1)C(=O)N(Cc1ncc(OC3CCCC3)cn1)[C@H](CC(C)(C)C)CO2 [Compound 566]	< 1 µM	> 60%	–
Cc1cccc(C)c1-c1cc2nc(n1)NS(=O)(=O)c1cccc(c1)C(=O)N(Cc1ncc(OCC(C)(C)C)cn1)[C@H](CC(C)(C)C)CO2 [Compound 567]	< 1 µM	> 60%	–
Cc1cccc(C)c1-c1cc2nc(n1)NS(=O)(=O)c1cccc(c1)C(=O)N(Cc1ncc(N3CCC(OC(C)C)CC3)cn1)[C@H](CC(C)(C)C)CO2 [Compound 568]	< 1 µM	> 60%	–
COC[C@H]1CCCN1c1cnc(CN2C(=O)c3cccc(c3)S(=O)(=O)Nc3nc(cc(-c4c(C)cccc4C)n3)OC[C@H]2CC(C)(C)C)nc1 [Compound 570]	< 1 µM	> 60%	–
COC[C@@H]1CCCN1c1cnc(CN2C(=O)c3cccc(c3)S(=O)(=O)Nc3nc(cc(-c4c(C)cccc4C)n3)OC[C@H]2CC(C)(C)C)nc1 [Compound 571]	< 1 µM	> 60%	–
Cc1cccc(C)c1-c1cc2nc(n1)NS(=O)(=O)c1cccc(c1)C(=O)N(Cc1ncc(CC(C)C)cn1)[C@H](CC(C)C)CO2 [Compound 574]	< 1 µM	> 60%	–
Cc1cccc(C)c1-c1cc2nc(n1)NS(=O)(=O)c1cccc(c1)C(=O)N(Cc1ncc(N(C)C3CC4(CC4)C3)cn1)[C@H](CC(C)(C)C)CO2 [Compound 575]	< 1 µM	> 60%	–
COc1cccc(C)c1-c1cc2nc(n1)NS(=O)(=O)c1cccc(c1)C(=O)N(Cc1ncc(CC(C)C)cn1)[C@H](CC(C)(C)C)CO2 [Compound 576]	–	–	activation at 10 µM (Table 12): > 600%
CC(C)=C(C)c1cccc(CN2C(=O)c3cccc(c3)S(=O)(=O)Nc3nc(cc(-c4c(C)cccc4C)n3)OC[C@H]2CC(C)(C)C)n1 [Compound 577]	–	–	activation at 10 µM (Table 12): > 600%
COc1cccc(C)c1-c1cc2nc(n1)NS(=O)(=O)c1cccc(c1)C(=O)N(Cc1cccc(N3CCCC3C)n1)[C@H](CC(C)(C)C)CO2 (stereo partly shown) [Compound 578]	–	–	activation at 10 µM (Table 12): < 30%
Cc1cccc(C)c1-c1cc2nc(n1)NS(=O)(=O)c1cccc(c1)C(=O)N(Cc1ncc(N3CCC4(COC4)C3)cn1)[C@H](CC(C)(C)C)CO2 [Compound 580]	< 1 µM	> 60%	–
Cc1cccc(C)c1-c1cc2nc(n1)NS(=O)(=O)c1cccc(c1)C(=O)N(Cc1cccc(CCC(C)(C)C)n1)[C@H](CC(C)(C)C)CO2 [Compound 582]	< 1 µM	> 60%	–

Compound	EC50 (Table 12, read-out: HBE EC50)	Emax (Table 12)	other results
Cc1cccc(C)c1-c1cc2nc(n1)NS(=O)(=O)c1cccc(c1)C(=O)N(Cc1ccnc(C(C)C)n1)[C@H](CC(C)(C)C)CO2 [Compound 584]	< 1 µM	> 60%	–
COC1(C)CN(c2cnc(CN3C(=O)c4cccc(c4)S(=O)(=O)Nc4nc(cc(-c5c(C)cccc5C)n4)OC[C@H]3CC(C)(C)C)nc2)C1 [Compound 585]	< 1 µM	> 60%	–
Cc1cccc(C)c1-c1cc2nc(n1)NS(=O)(=O)c1cccc(c1)C(=O)N(Cc1ncc(N3CC(C)(O)C3)cn1)[C@H](CC(C)(C)C)CO2 [Compound 586]	< 1 µM	> 60%	–
Cc1cccc(C)c1-c1cc2nc(n1)NS(=O)(=O)c1cccc(c1)C(=O)N(Cc1nccc(N3CCCC3(C)C)n1)[C@H](CC(C)(C)C)CO2 [Compound 587]	< 1 µM	> 60%	–
Cc1cccc(C)c1-c1cc2nc(n1)NS(=O)(=O)c1cccc(c1)C(=O)N(Cc1cccc(-c3ncccn3)n1)[C@H](CC(C)(C)C)CO2 [Compound 590]	< 1 µM	> 60%	–
Cc1cccnc1-c1cccc(CN2C(=O)c3cccc(c3)S(=O)(=O)Nc3nc(cc(-c4c(C)cccc4C)n3)OC[C@H]2CC(C)(C)C)n1 [Compound 591]	–	–	activation at 10 µM (Table 12): > 600%
C=C(C)c1nccc(CN2C(=O)c3cccc(c3)S(=O)(=O)Nc3nc(cc(-c4c(C)cccc4C)n3)OC[C@H]2CC(C)(C)C)n1 [Compound 593]	< 1 µM	> 60%	–
Cc1cccc(C)c1-c1cc2nc(n1)NS(=O)(=O)c1cccc(c1)C(=O)N(Cc1ccnc(CC(C)C)n1)[C@H](CC(C)(C)C)CO2 [Compound 594]	< 1 µM	> 60%	–
Cc1cccc(C)c1-c1cc2nc(n1)NS(=O)(=O)c1cccc(c1)C(=O)N(Cc1ccnc(OC(C)C)n1)[C@H](CC(C)(C)C)CO2 [Compound 595]	< 1 µM	> 60%	–
CC(C)=Cc1nccc(CN2C(=O)c3cccc(c3)S(=O)(=O)Nc3nc(cc(-c4c(C)cccc4C)n3)OC[C@H]2CC(C)(C)C)n1 [Compound 596]	< 1 µM	> 60%	–
Cc1cccc(C)c1-c1cc2nc(n1)NS(=O)(=O)c1cccc(c1)C(=O)N(Cc1cccc(C3CCCC3)n1)[C@H](CC(C)(C)C)CO2 [Compound 598]	–	–	activation at 10 µM (Table 11): > 60%; EC50 (Table 11, read-out: HBE EC50): < 1 µM; Emax (Table 11): > 60%
COC1CCN(c2cnc(CN3C(=O)c4cccc(c4)S(=O)(=O)Nc4nc(cc(-c5c(C)cccc5C)n4)OC[C@H]3CC(C)(C)C)nc2)C1 (stereo partly shown) [Compound 599]	–	–	EC50 (Table 11, read-out: HBE EC50): 1 to 3 µM; Emax (Table 11): > 60%
COCCN(C)c1nccc(CN2C(=O)c3cccc(c3)S(=O)(=O)Nc3nc(cc(-c4c(C)cccc4C)n3)OC[C@H]2CC(C)(C)C)n1 [Compound 600]	–	–	EC50 (Table 11, read-out: HBE EC50): < 1 µM; Emax (Table 11): > 60%
Cc1cccc(C)c1-c1cc2nc(n1)NS(=O)(=O)c1cccc(c1)C(=O)N(Cc1ccnc(N(C)CC(C)(C)C)n1)[C@H](CC(C)(C)C)CO2 [Compound 601]	–	–	EC50 (Table 11, read-out: HBE EC50): < 1 µM; Emax (Table 11): > 60%
CCN(c1ccnc(CN2C(=O)c3cccc(c3)S(=O)(=O)Nc3nc(cc(-c4c(C)cccc4C)n3)OC[C@H]2CC(C)(C)C)n1)C(C)C [Compound 602]	–	–	EC50 (Table 11, read-out: HBE EC50): < 1 µM; Emax (Table 11): > 60%
Cc1cccc(C)c1-c1cc2nc(n1)NS(=O)(=O)c1cccc(c1)C(=O)N(Cc1cccc(C3CCCCO3)n1)[C@H](CC(C)(C)C)CO2 (stereo partly shown) [Compound 603]	–	–	EC50 (Table 11, read-out: HBE EC50): < 1 µM; Emax (Table 11): > 60%

Second part, led by results:

EC50 (Table 12, read-out: HBE EC50)	Emax (Table 12)	Compound	other results
< 1 µM	> 60%	Cc1cccc(C)c1-c1cc2nc(n1)NS(=O)(=O)c1cccc(c1)C(=O)N(Cc1cccc(N3CCCC34CCC4)n1)[C@H](CC(C)(C)C)CO2 [Compound 562]	–
< 1 µM	> 60%	Cc1cccc(C)c1-c1cc2nc(n1)NS(=O)(=O)c1cccc(c1)C(=O)N(Cc1cccc(N3CCC34CCCC4)n1)[C@H](CC(C)(C)C)CO2 [Compound 565]	–
< 1 µM	> 60%	Cc1cccc(C)c1-c1cc2nc(n1)NS(=O)(=O)c1cccc(c1)C(=O)N(Cc1ncc(N3CCC[C@@H]3C)cn1)[C@H](CC(C)(C)C)CO2 [Compound 569]	–
< 1 µM	> 60%	Cc1cccc(C)c1-c1cc2nc(n1)NS(=O)(=O)c1cccc(c1)C(=O)N(Cc1ncc(N3CCC[C@H]3C)cn1)[C@H](CC(C)(C)C)CO2 [Compound 572]	–
< 1 µM	> 60%	Cc1cccc(C)c1-c1cc2nc(n1)NS(=O)(=O)c1cccc(c1)C(=O)N(Cc1cccc(N3CCC[C@H]3C)n1)[C@H](CC(C)C)CO2 [Compound 573]	–
< 1 µM	> 60%	COc1cccc(C)c1-c1cc2nc(n1)NS(=O)(=O)c1cccc(c1)C(=O)N(Cc1ncc(N3CCC(C)(C)C3)cn1)[C@H](CC(C)(C)C)CO2 [Compound 579]	–
< 1 µM	> 60%	Cc1cccc(C)c1-c1cc2nc(n1)NS(=O)(=O)c1cccc(c1)C(=O)N(Cc1cccc(N(C)C3CC4(CC4)C3)n1)[C@H](CC(C)(C)C)CO2 [Compound 581]	–
< 1 µM	> 60%	Cc1cccc(C)c1-c1cc2nc(n1)NS(=O)(=O)c1cccc(c1)C(=O)N(Cc1cccc(CC(C)C)n1)[C@H](CC(C)(C)C)CO2 [Compound 583]	–
< 1 µM	> 60%	Cc1cccc(C)c1-c1cc2nc(n1)NS(=O)(=O)c1cccc(c1)C(=O)N(Cc1cccc(/C=C/C(C)(C)C)n1)[C@H](CC(C)(C)C)CO2 [Compound 588]	–
< 1 µM	> 60%	CC(C)=Cc1cccc(CN2C(=O)c3cccc(c3)S(=O)(=O)Nc3nc(cc(-c4c(C)cccc4C)n3)OC[C@H]2CC(C)(C)C)n1 [Compound 589]	–
1 to 3 µM	> 60%	Cc1cccc(C)c1-c1cc2nc(n1)NS(=O)(=O)c1cccc(c1)C(=O)N(Cc1cccc(N3CCCC3(C)C)n1)[C@H](CC(C)(C)C)CO2 [Compound 592]	–
< 1 µM	30 to 60%	Cc1cccc(C)c1-c1cc2nc(n1)NS(=O)(=O)c1cccc(c1)C(=O)N(Cc1cccc(N3CC(C)(C)CC3(C)C)n1)[C@H](CC(C)(C)C)CO2 [Compound 597]	–
< 1 µM	> 60%	Cc1cccc(C)c1-c1cc2nc(n1)NS(=O)(=O)c1cccc(c1)C(=O)N(Cc1cccc(C3CCCCO3)n1)[C@H](CC(C)(C)C)CO2 (stereo partly shown) [Compound 604]	–
